Measurements from patent US9133129B2, “Bicyclic compound” (TAKEDA PHARMACEUTICAL COMPANY LIMITED, priority 2011, dated 2015).

What was measured:
human ACC2 = target: T1, human ACC2 (Homo sapiens, UniProt O00763); experiment: ACC2 inhibitory activity, malachite green assay with recombinant ACC2 (Nd); format: biochemical; conditions: 1 μM of the test compound; read-out: ACC2 inhibitory rates (%) at 1 μM
T1 construct: made in house; host or cells: SF-9 insect cells, recombinant baculovirus BAC-ACC2 (Nd)
Protocol: The ACC2 inhibitory action of the compound of the present invention was evaluated by the following method.
(1) Cloning of Human ACC2 Gene and Preparation of Recombinant Baculovirus
Human ACC2 gene was cloned by PCR using a human skeletal muscle cDNA library (Clontech) as a template and Primer 1 and Primer 2 shown below. Primer 1 and Primer 2 were prepared by adding SalI, XbaI restriction enzyme recognition sequences based on the information of the base sequence of human ACC2 gene (Genbank Accession U89344).
(§1) PCR was performed using Pyrobest DNA polymerase (TAKARA BIO INC.). The obtained PCR product was cloned to pT7 Blue vector (Novagen) and after confirmation of the base sequence, digested with restriction enzymes SalI and XbaI. The obtained DNA fragment was inserted into pFAST-BacHTa (Invitrogen) digested with restriction enzymes SalI and XbaI to give expression plasmid ACC2/pFAST-BacHTa.
A plasmid for expression of ACC2 without a mitochondrial targeting sequence was prepared by PCR using the expression plasmid as a template, and Primer 3 (SalI restriction enzyme recognition sequence was added) and Primer 4, which are prepared by reference to the information of human ACC2 gene base sequence (Genbank Accession U89344).
as §1, with “Pyrobest-DNA” for “Pyrobest DNA”, “AflII.” for “XbaI.”, “ACC2/pFAST-BacHTa” for “pFAST-BacHTa (Invitrogen)”, “AflII” for “XbaI”, “ACC2mito7/pFAST-BacHTa.” for “ACC2/pFAST-BacHTa.”
Using the expression plasmid ACC2mito7/pFAST-BacHTa and BAC-TO-BAC Baculovirus Expression System (Invitrogen), virus stock BAC-ACC2 of recombinant Baculovirus (N terminal deleted (hereinafter Nd)) was prepared.
(2) Preparation of ACC2 (Nd) Protein
SF-9 cells (Invitrogen) were inoculated to a medium (10 L) for insect cells (Sf-900IISFM medium (Invitrogen) containing 5% fetal bovine serum (Trace), 50 mg/L Gentamicin (Wako), 0.1% Pluronic F-68 (Invitrogen)) at 1.0×10^6 cells/mL, and cultured with shaking in Wave Bioreactor (GE Health Care) at 27° C., 20 rpm, rocking angle 10°, oxygen concentration 30%.
On day 2 of the culture, recombinant Baculovirus BAC-ACC2 (Nd) was added, and the cells were cultured for 3 days. The culture medium was centrifuged at 1000×g for 10 min to give virus-infected cells. The cells were washed with phosphate buffered saline (Invitrogen) and centrifuged under the same conditions. The obtained cells were cryopreserved at −80° C.
The cryopreserved cells were thawed in ice and suspended in 900 mL of 25 mM HEPES buffer (pH 7.5) containing 10% Glycerol, 0.3 M NaCl, 1 mM EDTA, 25 mM Sodium β-Glycerophosphate and 1 mM Sodium Orthovanadate, and supplemented with Complete Protease Inhibitor (Roche). The obtained suspension was homogenized three times in a polytron homogenizer (Kinematica) at 20,000 rpm for 30 sec. The obtained cell disruption solution was clarified by centrifugation at 186000×g for 60 min. To the supernatant was added 5 mL of AF-chelate 650M Ni chelated carrier (TOSOH), and the mixture was rotated at 4° C. for 1 hr, and centrifuged at 1000×g for 5 min, and the carrier was transferred to opened column. The column was washed with 50 mL of buffer A (50 mM HEPES (pH 7.5) containing 0.3 M NaCl), further washed with buffer A containing 20 mM Imidazole, and eluted with buffer A containing 250 mM Imidazole. The eluate was concentrated with Amicon Ultra 15 (Millipore) with a molecular weight cut off of 50K. The obtained concentrate was filtered using gelfiltration column (HiLoad 26/60 Superdex200 prep grade) (GE Health Care) with 50 mM HEPES buffer (pH 7.5) containing 10 mM MgCl2, 2 mM Dithiothreitol, 10 mM Tripotassium Citrate and 0.3 M NaCl to give ACC2 (Nd). The obtained ACC2 (Nd) was cryopreserved at −80° C.
(3) Measurement of ACC2 Inhibitory Activity […]

T1 sequence (O00763 117-2458 limits assumed): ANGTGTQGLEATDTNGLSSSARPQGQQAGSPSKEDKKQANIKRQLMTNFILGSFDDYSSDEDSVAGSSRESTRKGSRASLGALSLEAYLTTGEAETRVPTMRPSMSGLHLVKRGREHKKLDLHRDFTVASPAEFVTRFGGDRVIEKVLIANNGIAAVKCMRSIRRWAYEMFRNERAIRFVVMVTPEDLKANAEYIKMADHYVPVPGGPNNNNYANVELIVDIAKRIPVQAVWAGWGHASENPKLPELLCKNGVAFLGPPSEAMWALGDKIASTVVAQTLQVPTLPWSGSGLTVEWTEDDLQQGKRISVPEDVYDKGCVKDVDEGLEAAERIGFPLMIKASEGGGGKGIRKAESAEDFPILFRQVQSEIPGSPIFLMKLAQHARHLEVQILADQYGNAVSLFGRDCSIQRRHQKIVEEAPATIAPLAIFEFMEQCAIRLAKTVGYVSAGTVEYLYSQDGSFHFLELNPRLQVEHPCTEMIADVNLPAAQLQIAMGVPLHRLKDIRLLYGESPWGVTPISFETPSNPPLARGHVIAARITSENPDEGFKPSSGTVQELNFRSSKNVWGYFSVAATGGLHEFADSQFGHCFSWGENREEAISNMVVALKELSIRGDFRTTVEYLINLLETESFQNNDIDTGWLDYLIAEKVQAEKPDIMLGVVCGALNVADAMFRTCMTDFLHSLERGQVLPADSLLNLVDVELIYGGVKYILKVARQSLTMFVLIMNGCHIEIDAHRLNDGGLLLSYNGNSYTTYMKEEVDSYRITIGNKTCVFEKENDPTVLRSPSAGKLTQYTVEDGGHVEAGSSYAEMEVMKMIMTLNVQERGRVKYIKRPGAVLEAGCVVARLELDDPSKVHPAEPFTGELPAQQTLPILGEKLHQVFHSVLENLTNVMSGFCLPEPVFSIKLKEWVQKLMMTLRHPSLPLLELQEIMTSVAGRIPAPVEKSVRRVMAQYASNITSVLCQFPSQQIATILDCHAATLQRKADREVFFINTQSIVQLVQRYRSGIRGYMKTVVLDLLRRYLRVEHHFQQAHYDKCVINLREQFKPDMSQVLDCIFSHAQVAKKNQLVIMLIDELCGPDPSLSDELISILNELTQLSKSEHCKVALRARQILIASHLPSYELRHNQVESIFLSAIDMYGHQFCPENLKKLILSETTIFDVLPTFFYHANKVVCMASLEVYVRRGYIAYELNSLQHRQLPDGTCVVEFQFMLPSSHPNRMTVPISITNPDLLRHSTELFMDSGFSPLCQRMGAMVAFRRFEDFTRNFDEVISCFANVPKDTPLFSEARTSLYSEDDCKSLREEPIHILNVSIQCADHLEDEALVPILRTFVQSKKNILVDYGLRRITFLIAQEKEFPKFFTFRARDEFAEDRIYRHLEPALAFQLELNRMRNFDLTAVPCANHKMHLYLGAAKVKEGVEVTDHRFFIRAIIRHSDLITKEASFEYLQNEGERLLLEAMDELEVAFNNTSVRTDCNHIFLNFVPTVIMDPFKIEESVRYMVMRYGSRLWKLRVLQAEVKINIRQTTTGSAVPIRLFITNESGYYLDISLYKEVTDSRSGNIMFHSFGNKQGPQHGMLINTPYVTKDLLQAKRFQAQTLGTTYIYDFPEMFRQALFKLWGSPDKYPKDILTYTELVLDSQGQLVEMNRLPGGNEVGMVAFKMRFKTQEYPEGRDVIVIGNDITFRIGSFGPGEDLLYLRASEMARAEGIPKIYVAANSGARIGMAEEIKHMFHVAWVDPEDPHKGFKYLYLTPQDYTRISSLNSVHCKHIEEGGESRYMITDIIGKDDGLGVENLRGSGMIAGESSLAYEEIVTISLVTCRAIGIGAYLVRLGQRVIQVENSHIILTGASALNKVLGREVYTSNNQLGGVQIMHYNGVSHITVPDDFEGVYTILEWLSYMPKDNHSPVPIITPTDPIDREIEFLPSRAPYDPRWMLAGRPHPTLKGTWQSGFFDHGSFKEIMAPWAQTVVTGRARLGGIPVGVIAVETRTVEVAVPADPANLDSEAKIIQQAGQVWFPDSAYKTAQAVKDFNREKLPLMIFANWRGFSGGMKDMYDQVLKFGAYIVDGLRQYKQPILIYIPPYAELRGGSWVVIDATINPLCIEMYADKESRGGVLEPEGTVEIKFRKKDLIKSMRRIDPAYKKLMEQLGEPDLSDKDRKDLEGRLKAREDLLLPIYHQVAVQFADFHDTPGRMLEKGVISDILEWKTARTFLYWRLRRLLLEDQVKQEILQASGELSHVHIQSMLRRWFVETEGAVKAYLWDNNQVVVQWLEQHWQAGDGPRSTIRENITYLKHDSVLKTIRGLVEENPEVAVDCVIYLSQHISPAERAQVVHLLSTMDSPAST

| inhibition at 1 µM (human ACC2) [%] | melting point [°C] | SMILES |
| --- | --- | --- |
| 90 | 162.9 to 163 | COc1cc(-c2nc3cnc(OC[C@H](C)NC(C)=O)cc3o2)cc(F)c1OCC1CC1 [Example 62, N-((2S)-1-((2-(4-(cyclopropylmethoxy)-3-fluoro-5-methoxyphenyl) [1,3]oxazolo[4,5-c]pyridin-6-yl)oxy)propan-2-yl)acetamide] |
| 95 | 183.3 to 183.4 | CC(=O)N[C@@H](C)COc1cc2oc(-c3cc(F)c(OCC4CC4)cn3)nc2cn1 [Example 65, N-((2S)-1-((2-(5-(cyclopropylmethoxy)-4-fluoropyridin-2-yl)[1,3]oxazolo[4,5-c]pyridin-6-yl)oxy)propan-2-yl)acetamide] |
| 98 | 204.6 to 204.7 | CC(=O)N[C@@H](C)COc1cc2oc(-c3ccc(OC[C@H]4CC4(F)F)cc3)nc2cn1 [Example 68, N-((2S)-1-((2-(4-(((1R)-2,2-difluorocyclopropyl)methoxy)phenyl) [1,3]oxazolo[4,5-c]pyridin-6-yl)oxy)propan-2-yl)acetamide] |
